# Laboratory results as given in paper PMC2932872 (Journal of agricultural and food chemistry, 2010).
# Several values for one entry are separate records, joined by “and”; a condition that tells them apart may be missing. Identical values can stand only once.
# Assays:
# SH-SY5Y cells [1] = assay: Preliminary uptake of ^14C-MPS and ^14C-MPO in SH-SY5Y cells; assay type: in vitro ADME, human; conditions: 1 μM exposure; for share of total applied radioactivity that entered the cells: at the most
# SH-SY5Y cells [2] = assay: Fate in uptake experiments: OP and degradation products in cell cytosol; assay type: in vitro ADME, human; conditions: for uptake rate constant / amount of parent OP in the cytosol / total uptake (OP and degradation products): 1 μM exposure; for total uptake (OP and degradation products): 48 h (maximum); for OP associated with the membrane fraction (in words): uptake experiments; for Percentage of MPS in cell cytosol (per 10^6 cells) / Relative ratio of MPS in cell cytosol: 1 μM of OP
# [3] = Stability of ^14C-MPS and ^14C-MPO in culture media; assay type: physicochemical; conditions: 1 μM; for OP recovered from the media unchanged: 72 h incubation in media, 37 °C
# SH-SY5Y cells [4] = assay: MTT viability assay; assay type: cell-based, human; conditions: for cytotoxicity (in words): 50 μM, 48 and 72 h
# [5] = cited from earlier work
# [6] = Fate in uptake experiments: OP and degradation products in culture media; assay type: in vitro ADME; conditions: cells exposed to 1 μM of OP
# [7] = target: acetylcholinesterase (AChE, EC 3.1.1.7); conditions: cited from earlier work
smiles,measurement,setting,value
"COP(=O)(OC)Oc1ccc([N+](=O)[O-])cc1 [MPO, methyl paraoxon]",share of total applied radioactivity that entered the cells,SH-SY5Y cells [1],≤ 5%
same,maximum level of uptake (total amount of OP inside cells),SH-SY5Y cells [1]; maximum at 48 h,46 nM
same,uptake rate constant,SH-SY5Y cells [2],0.025 h⁻¹
same,amount of parent OP in the cytosol,SH-SY5Y cells [2]; 48 h,0.37 nM/10^6 cells
same,total uptake (OP and degradation products),SH-SY5Y cells [2],1.76 nM/10^6 cells
same,OP associated with the membrane fraction (in words),SH-SY5Y cells [2],negligible amount
same,OP recovered from the media unchanged,[3],more than 50%
same,cytotoxicity (in words),SH-SY5Y cells [4],Some cytotoxicity
same,cytotoxicity,"SH-SY5Y cells [4]; 100 μM, all time points (24, 48, 72 h)",at least 60%
"COP(=S)(OC)Oc1ccc([N+](=O)[O-])cc1 [MPS, OO, -dimethyl O-4-nitrophenyl phosphorothioate]",Log Po/w,[5],3.0
same,Relative ratio of MPS in culture media,[6]; 24 h,74.3 ± 1.0
same,Relative ratio of MPS in culture media,[6]; 48 h,63.9 ± 0.1
same,Relative ratio of MPS in culture media,[6]; 72 h,52.9 ± 0.8
same,share of total applied radioactivity that entered the cells,SH-SY5Y cells [1],≤ 5%
same,maximum level of uptake (total amount of OP inside cells),SH-SY5Y cells [1]; maximum at 24 h,13 nM
same,uptake rate constant,SH-SY5Y cells [2],0.054 h⁻¹
same,amount of parent OP in the cytosol,SH-SY5Y cells [2]; 48 h,0.54 nM/10^6 cells
same,total uptake (OP and degradation products),SH-SY5Y cells [2],1.19 nM/10^6 cells
same,Percentage of MPS in cell cytosol (per 10^6 cells),SH-SY5Y cells [2]; 24 h,0.036 ± 0.001%
same,Relative ratio of MPS in cell cytosol,SH-SY5Y cells [2]; 24 h,45.3 ± 1.5
same,Percentage of MPS in cell cytosol (per 10^6 cells),SH-SY5Y cells [2]; 48 h,0.054 ± 0.006%
same,Relative ratio of MPS in cell cytosol,"SH-SY5Y cells [2]; 48 h, listed as 14C-MPS",46 and 45.8 ± 2.0
same,Percentage of MPS in cell cytosol (per 10^6 cells),SH-SY5Y cells [2]; 72 h,0.043 ± 0.004%
same,Relative ratio of MPS in cell cytosol,SH-SY5Y cells [2]; 72 h,43.5 ± 1.8
same,OP associated with the membrane fraction (in words),SH-SY5Y cells [2],negligible amount
same,OP recovered from the media unchanged,[3],more than 50%
same,^14C-MPO formed by oxidation in media,[3]; after 4 days in media,less than 1%
same,cytotoxicity (in words),SH-SY5Y cells [4],Some cytotoxicity
same,cell viability (in words),"SH-SY5Y cells [4]; 100 μM, 24 h",no significant decrease in viability
same,cytotoxicity,"SH-SY5Y cells [4]; 100 μM, 24 h",4–5% and 4%
same,cytotoxicity,"SH-SY5Y cells [4]; 100 μM, 48 h",~ 60% and 60%
same,cytotoxicity,"SH-SY5Y cells [4]; 100 μM, 72 h",90%
CCOP(=S)(OCC)Oc1ccc([N+](=O)[O-])cc1 [Parathion],IC50 (cholinesterase inhibition),[7],10^−4 to 10^−5 M
CCOP(=O)(OCC)Oc1ccc([N+](=O)[O-])cc1 [ethyl paraoxon],Log Po/w,[5],1.6
CCOP(=O)(OCC)Oc1ccc([N+](=O)[O-])cc1 [paraoxon],IC50,[7]; read-out: IC50 (inhibition of AChE),10 nM
